The values below come from US12433964B2, “Antiviral and antibacterial disinfection aero-solution using edible food dyes” (Purdue Research Foundation, priority 2020, dated 2025).

A short description of the series: Lifetime (photobleaching) of photosensitizers by fluorescent emission monitoring. Format: physicochemical. The following applies: for complete photobleaching after (lifetime): 5 μM aqueous solution, green laser 532 nm 6.3 mW cm^−2 / white LED 2400 lux; for lasting time of singlet oxygen generation: estimated for standard illumination level of 500 lux. The procedure: To test the lifetime of photosensitizers, we monitored the fluorescent emission of Rose Bengal and Erythrosine, respectively. FIG. 10a is a graph of normalized intensity vs wavelength showing absorption and fluorescence for Rose Bengal and Erythrosine. 0.5-mL aqueous solutions of each photosensitizer were put into a cuvette and then the fluorescent spectrum was measured using a fiber bundle-coupled spectrometer (VS140 VIS-NIR; Horiba Jobin Yvon Inc., Edison, NJ, USA). […] Lifetime of Rose Bengal is longer than that of Erythrosine, showing complete photobleaching after 120 min (60 min for Erythrosine). Both are also activated by a white LED with 2400 lux. Considering that the standard illumination level of normal workstation spaces is 500 lux, the lasting time of singlet oxygen generation for Rose Bengal and Erythrosine can be estimated to be about 9.6 and 4.8 hours, respectively.

As to `O=C([O-])c1c(Cl)c(Cl)c(Cl)c(Cl)c1-c1c2cc(I)c(=O)c(I)c-2oc2c(I)c([O-])c(I)cc12.[Na+].[Na+]` [FD&C RED No. 105, Rose Bengal], the “complete photobleaching after (lifetime)” value is on record as 120 min and the “lasting time of singlet oxygen generation” value is on record as “about 9.6 hours”.
The like results for Erythrosine [FD&C RED No. 3] were, in that order, 60 min and approximately 4.8 h.
